In experiment [1] the test system is Aβ production in Chinese hamster ovary cells that over-express human APP695 with the London and Swedish mutations. The experiment in a line: Cellular Aβ IC50 determination (Aβ40 sandwich ELISA). The format is cell-based. The following applies: Cricetulus griseus; cellular Aβ production; read-out: IC50. In a few lines:
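CHO cells overexpressing human APP695 with London and Swedish mutations, seeded at 10% confluency, treated with compounds up to about 4 μM final (0.4% DMSO). Secreted Aβ40 measured by sandwich ELISA relative to control and fitted to a 4-parameter IC50 model.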
On the technique in general: ELISA stands for enzyme-linked immunosorbent assay.

The next experiment has as its target memapsin 2 (Homo sapiens, UniProt P56817). The experiment in a line: Inhibition of memapsin 2 beta-secretase activity (fluorogenic substrate FS-2). The following applies: memapsin 2, pH 4, 37° C., 20 minutes pre-incubation; read-out: M2Ki. The format is biochemical. In a few lines: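 Memapsin 2 pre-incubated 20 min with compound at pH 4, 37° C, then FS-2 substrate (MCA-SEVNLDAEFK-DNP, APP Swedish cleavage site) added. Rate of fluorescence increase compared with uninhibited controls, fitted to a tight-binding inhibition model.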

memapsin 2, sequence (P56817 46-501): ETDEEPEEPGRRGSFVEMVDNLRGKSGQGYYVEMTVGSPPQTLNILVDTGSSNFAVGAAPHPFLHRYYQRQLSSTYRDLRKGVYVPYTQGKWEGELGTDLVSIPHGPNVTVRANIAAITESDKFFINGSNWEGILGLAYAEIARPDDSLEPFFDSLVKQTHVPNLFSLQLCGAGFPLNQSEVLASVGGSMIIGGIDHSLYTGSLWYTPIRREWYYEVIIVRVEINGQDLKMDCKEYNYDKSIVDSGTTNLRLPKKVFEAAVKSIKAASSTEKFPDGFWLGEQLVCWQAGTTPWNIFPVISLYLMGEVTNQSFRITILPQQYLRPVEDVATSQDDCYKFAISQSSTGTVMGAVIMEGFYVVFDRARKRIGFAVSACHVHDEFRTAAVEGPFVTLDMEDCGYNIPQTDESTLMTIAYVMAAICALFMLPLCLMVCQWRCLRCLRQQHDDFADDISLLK

As usually defined, the IC50 is the point on the concentration scale where inhibition reaches its midpoint. As for `Cc1csc(CN(C)C(=O)c2cccc(C(=O)N[C@@H](Cc3ccccc3)[C@H](O)CNCc3cncc(Br)c3)c2)n1` [Compound 158, N1-((2S,3R)-4-((5-bromopyridin-3-yl)methylamino)-3-hydroxy-1-phenylbutan-2-yl)-N3-methyl-N3-((4-methylthiazol-2-yl)methyl)isophthalamide], the IC50 in experiment [1] is below 1000 nM. In addition, on memapsin 2, the Ki was below 300 nM.

As for `CNc1nc(CNC[C@@H](O)[C@H](Cc2ccccc2)NC(=O)c2cccc(C(=O)N(C)Cc3nc(C)cs3)c2)cc(C(C)C)n1` [Compound 161, N1-((2S,3R)-3-hydroxy-4-((6-isopropyl-2-(methylamino)pyrimidin-4-yl)methylamino)-1-phenylbutan-2-yl)-N3-methyl-N3-((4-methylthiazol-2-yl)methyl)isophthalamide], the IC50 in experiment [1] was below 1000 nM. Moreover, on memapsin 2, the Ki is below 300 nM.

As to `Cc1csc(CN(C)C(=O)c2cc(C(=O)N[C@@H](Cc3ccccc3)[C@H](O)CNCc3cncc(C(C)C)c3)cc(N(C)C)c2)n1` [Compound 162, 5-(dimethylamino)-N1-((2S,3R)-3-hydroxy-4-((5-isopropylpyridin-3-yl)methylamino)-1-phenylbutan-2-yl)-N3-methyl-N3-((4-methylthiazol-2-yl)methyl)isophthalamide], in experiment [1], the IC50 was below 1000 nM. Also, the Ki on memapsin 2 is below 300 nM.

With `COc1cccc(C(C)(C)NC[C@@H](O)[C@H](Cc2ccccc2)NC(=O)c2cccc(C(=O)N(C)Cc3nc(C)cs3)c2)c1` [Compound 163, N1-((2S,3R)-3-hydroxy-4-(2-(3-methoxyphenyl)propan-2-ylamino)-1-phenylbutan-2-yl)-N3-methyl-N3-((4-methylthiazol-2-yl)methyl)isophthalamide], in experiment [1], the IC50 is below 1000 nM. Also, the Ki on memapsin 2 is below 300 nM.

In the case of `Cc1csc(CN(C)C(=O)c2cccc(C(=O)N[C@@H](Cc3ccccc3)[C@H](O)CNCc3cccc(NCc4ccccc4)c3)c2)n1` [Compound 164, N1-((2S,3R)-4-(3-(benzylamino)benzylamino)-3-hydroxy-1-phenylbutan-2-yl)-N3-methyl-N3-((4-methylthiazol-2-yl)methyl)isophthalamide], in experiment [1], the IC50 is below 1000 nM. The Ki at memapsin 2 was below 300 nM.

With `Cc1csc(CN(C)C(=O)c2cccc(C(=O)N[C@@H](Cc3ccccc3)[C@H](O)CNCc3cc(OS(C)(=O)=O)cc(C(C)C)c3)c2)n1` [Compound 165, 3-(((2R,3S)-2-hydroxy-3-(3-(methyl((4-methylthiazol-2-yl)methyl)carbamoyl)benzamido)-4-phenylbutylamino)methyl)-5-isopropylphenyl methanesulfonate], the IC50 in experiment [1] was below 1000 nM. Besides, at memapsin 2, the Ki is below 300 nM.

For the molecule `COc1cccc(NC[C@@H](O)[C@H](Cc2ccccc2)NC(=O)c2cccc(C(=O)N(C)Cc3nc(C)cs3)c2)c1` [Compound 166, N1-((2S,3R)-3-hydroxy-4-(3-methoxyphenylamino)-1-phenylbutan-2-yl)-N3-methyl-N3-((4-methylthiazol-2-yl)methyl)isophthalamide], the IC50 in experiment [1] is above 5000 nM. Further, the Ki at memapsin 2 was above 501 nM.

Consider `CNc1cccc(CNC[C@@H](O)[C@H](Cc2ccccc2)NC(=O)c2cccc(C(=O)N(C)Cc3nc(C)cs3)c2)c1` [Compound 167, N1-((2S,3R)-3-hydroxy-4-(3-(methylamino)benzylamino)-1-phenylbutan-2-yl)-N3-methyl-N3-((4-methylthiazol-2-yl)methyl)isophthalamide], for which the IC50 in experiment [1] was below 1000 nM. The Ki on memapsin 2 is below 300 nM.

As for `C=C(C)c1cccc(CNC[C@@H](O)[C@H](Cc2ccccc2)NC(=O)c2cccc(C(=O)N(C)Cc3nc(C)cs3)c2)c1` [Compound 168, N1-((2S,3R)-3-hydroxy-1-phenyl-4-(3-(prop-1-en-2-yl)benzylamino)butan-2-yl)-N3-methyl-N3-((4-methylthiazol-2-yl)methyl)isophthalamide], the IC50 in experiment [1] is below 1000 nM. Further, the Ki on memapsin 2 was below 300 nM.

With `CCN(CC)c1cc(C(=O)N[C@@H](Cc2ccccc2)[C@H](O)CNCc2cccc(OC)c2)cc(C(=O)N(C)Cc2nc(C)cs2)c1` [Compound 169, 5-(diethylamino)-N1-((2S,3R)-3-hydroxy-4-(3-methoxybenzylamino)-1-phenylbutan-2-yl)-N3-methyl-N3-((4-methylthiazol-2-yl)methyl)isophthalamide], in experiment [1], the IC50 is below 1000 nM. In addition, on memapsin 2, the Ki was below 300 nM.

As for `Cc1csc(CN(C)C(=O)c2cccc(C(=O)N[C@@H](Cc3ccccc3)[C@H](O)CNCc3cncc(C#N)c3)c2)n1` [Compound 171, N1-((2S,3R)-4-((5-cyanopyridin-3-yl)methylamino)-3-hydroxy-1-phenylbutan-2-yl)-N3-methyl-N3-((4-methylthiazol-2-yl)methyl)isophthalamide], the IC50 in experiment [1] fell in the range of 1000 to 5000 nM. Also, the Ki at memapsin 2 lay in the range of 301 to 500 nM.

`CCN(CC)c1cc(C(=O)N[C@@H](Cc2ccccc2)[C@H](O)CNCc2cncc(C(C)C)c2)cc(C(=O)N(C)Cc2nc(C)cs2)c1` [Compound 172, 5-(diethylamino)-N1-((2S,3R)-3-hydroxy-4-((5-isopropylpyridin-3-yl)methylamino)-1-phenylbutan-2-yl)-N3-methyl-N3-((4-methylthiazol-2-yl)methyl)isophthalamide]: in experiment [1], the IC50 is below 1000 nM. The Ki on memapsin 2 is below 300 nM.

Consider `Cc1csc(CN(C)C(=O)c2cccc(C(=O)N[C@@H](Cc3ccccc3)[C@H](O)CNCc3cccc(C(C)Cl)c3)c2)n1` (stereo partly drawn) [Compound 173, N1-((2S,3R)-4-(3-(1-chloroethyl)benzylamino)-3-hydroxy-1-phenylbutan-2-yl)-N3-methyl-N3-((4-methylthiazol-2-yl)methyl)isophthalamide], for which the IC50 in experiment [1] is below 1000 nM. In addition, at memapsin 2, the Ki is below 300 nM.

With `COc1cccc(CNC[C@@H](O)[C@H](Cc2ccccc2)NC(=O)c2cc(C(=O)N(C)Cc3nc(C)cs3)cc(-c3ccccn3)c2)c1` [Compound 174, N1-((2S,3R)-3-hydroxy-4-(3-methoxybenzylamino)-1-phenylbutan-2-yl)-N3-methyl-N3-((4-methylthiazol-2-yl)methyl)-5-(pyridin-2-yl)isophthalamide], the IC50 in experiment [1] was below 1000 nM. At memapsin 2, the Ki is below 300 nM.

With `Cc1csc(CN(C)C(=O)c2cccc(C(=O)N[C@@H](Cc3ccccc3)[C@H](O)CNCc3cc(CNS(C)(=O)=O)cc(C(C)C)c3)c2)n1` [Compound 175, N1-((2S,3R)-3-hydroxy-4-(3-isopropyl-5-(methylsulfonamidomethyl)benzylamino)-1-phenylbutan-2-yl)-N3-methyl-N3-((4-methylthiazol-2-yl)methyl)isophthalamide], the IC50 in experiment [1] was above 5000 nM. Besides, the Ki on memapsin 2 is above 501 nM.

For the molecule `Cc1csc(CN(C)C(=O)c2cc(CF)cc(C(=O)N[C@@H](Cc3ccccc3)[C@H](O)CNCc3cncc(C(C)C)c3)c2)n1` [Compound 176, 5-(fluoromethyl)-N1-((2S,3R)-3-hydroxy-4-((5-isopropylpyridin-3-yl)methylamino)-1-phenylbutan-2-yl)-N3-methyl-N3-((4-methylthiazol-2-yl)methyl)isophthalamide], the IC50 in experiment [1] was below 1000 nM. In addition, the Ki on memapsin 2 was below 300 nM.

Consider `Cc1csc(CN(C)C(=O)c2cc(C(=O)N[C@@H](Cc3ccccc3)[C@H](O)CNCc3cc(C(C)C)nc(N)n3)cc(-c3ncco3)c2)n1` [Compound 177, N1-((2S,3R)-4-((2-amino-6-isopropylpyrimidin-4-yl)methylamino)-3-hydroxy-1-phenylbutan-2-yl)-N3-methyl-N3-((4-methylthiazol-2-yl)methyl)-5-(oxazol-2-yl)isophthalamide], for which the IC50 in experiment [1] was below 1000 nM. The Ki on memapsin 2 is below 300 nM.

For `Cc1csc(CN(C)C(=O)c2cc(C(=O)N[C@@H](Cc3ccccc3)[C@H](O)CNCc3cc(OS(C)(=O)=O)cc(C(C)C)c3)cc(N(C)C)c2)n1` [Compound 178, 3-(((2R,3S)-3-(3-(dimethylamino)-5-(methyl((4-methylthiazol-2-yl)methyl)carbamoyl)benzamido)-2-hydroxy-4-phenylbutylamino)methyl)-5-isopropylphenyl methanesulfonate], the IC50 in experiment [1] was below 1000 nM. Also, at memapsin 2, the Ki was below 300 nM.

Regarding `COc1cccc(CNC[C@@H](O)[C@H](Cc2ccccc2)NC(=O)c2cc(C(=O)N(C)Cc3nc(C)cs3)cc(N3CCCC3)c2)c1` [Compound 179, N1-((2S,3R)-3-hydroxy-4-(3-methoxybenzylamino)-1-phenylbutan-2-yl)-N3-methyl-N3-((4-methylthiazol-2-yl)methyl)-5-(pyrrolidin-1-yl)isophthalamide], in experiment [1], the IC50 is below 1000 nM. In addition, on memapsin 2, the Ki is below 300 nM.

`Cc1csc(CN(C)C(=O)c2cc(C(=O)N[C@@H](Cc3ccccc3)[C@H](O)CNCc3cncc(C(C)C)c3)cc(N3CCCC3)c2)n1` [Compound 180, N1-((2S,3R)-3-hydroxy-4-((5-isopropylpyridin-3-yl)methylamino)-1-phenylbutan-2-yl)-N3-methyl-N3-((4-methylthiazol-2-yl)methyl)-5-(pyrrolidin-1-yl)isophthalamide]: the IC50 in experiment [1] was below 1000 nM. Also, on memapsin 2, the Ki was below 300 nM.

For `Cc1csc(CN(C)C(=O)c2cc(C(=O)N[C@@H](Cc3ccccc3)[C@H](O)CNCc3cncc(C(C)C)c3)cc(-c3ccccn3)c2)n1` [Compound 181, N1-((2S,3R)-3-hydroxy-4-((5-isopropylpyridin-3-yl)methylamino)-1-phenylbutan-2-yl)-N3-methyl-N3-((4-methylthiazol-2-yl)methyl)-5-(pyridin-2-yl)isophthalamide], in experiment [1], the IC50 was below 1000 nM. On memapsin 2, the Ki is below 300 nM.

The values above are taken from US20100286145A1, “ISOPHTHALAMIDE DERIVATIVES INHIBITING BETA-SECRETASE ACTIVITY” (CoMentis, Inc., priority 2007, published 2010).
